pKi: −log10 of the molar value.
Key:
[1] = target: isolated recombinant JAK1 kinase domain (Homo sapiens (Human), UniProt P23458); experiment: JAK1 enzyme assay (Caliper LabChip, Ki); type: biochemical; details: isolated recombinant JAK1 kinase domain, 1.5 nM enzyme, ATP 25 μM
[2] = target: isolated recombinant JAK2 kinase domain (Homo sapiens (Human), UniProt O60674); experiment: JAK2 enzyme assay (Caliper LabChip, Ki); type: biochemical; details: isolated recombinant JAK2 kinase domain, 0.2 nM enzyme, ATP 25 μM
Chain of isolated recombinant JAK2 kinase domain (O60674 849-1124): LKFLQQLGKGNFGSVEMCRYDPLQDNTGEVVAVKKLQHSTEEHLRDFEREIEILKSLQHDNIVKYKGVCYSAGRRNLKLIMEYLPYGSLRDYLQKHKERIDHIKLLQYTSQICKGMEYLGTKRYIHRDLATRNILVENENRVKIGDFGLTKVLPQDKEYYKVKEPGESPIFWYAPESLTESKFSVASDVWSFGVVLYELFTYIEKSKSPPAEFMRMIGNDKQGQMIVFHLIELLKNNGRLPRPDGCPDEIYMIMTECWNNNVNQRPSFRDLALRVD

Chain of isolated recombinant JAK1 kinase domain (P23458 875-1153): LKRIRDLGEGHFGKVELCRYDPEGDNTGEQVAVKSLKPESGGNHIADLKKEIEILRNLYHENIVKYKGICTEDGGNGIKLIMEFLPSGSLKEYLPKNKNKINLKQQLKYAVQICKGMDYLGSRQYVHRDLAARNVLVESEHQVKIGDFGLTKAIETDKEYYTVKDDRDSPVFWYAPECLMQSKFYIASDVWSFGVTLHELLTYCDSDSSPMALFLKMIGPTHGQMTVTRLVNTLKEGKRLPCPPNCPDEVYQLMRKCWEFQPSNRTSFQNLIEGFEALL

Row | SMILES | pKi [1] | pKi [2]
1 | O=C(Cn1cc(Nc2nc3c(N4CC5CCC(C4)N5C(=O)CCC(F)(F)F)cccn3n2)cn1)N1CCN(C2CCC2)CC1 [Example 152, 1-[3-[2-[[1-[2-(4-cyclobutylpiperazin-1-yl)-2-oxo-ethyl]pyrazol-4-yl]amino]-[1,2,4]triazolo[1,5-a]pyridin-8-yl]-3,8-diazabicyclo[3.2.1]octan-8-yl]-4,4,4-trifluoro-butan-1-one] | 9.22 | 8.77
2 | CN1CCN(C(=O)Cn2cc(Nc3nc4c(N5CC6CCC(C5)N6C(=O)C5CC6CCC5O6)cccn4n3)cn2)CC1 (centres unmarked) [Example 53, 1-(4-methylpiperazin-1-yl)-2-[4-[[8-[8-(7-oxabicyclo[2.2.1]heptane-3-carbonyl)-3,8-diazabicyclo[3.2.1]octan-3-yl]-[1,2,4]triazolo[1,5-a]pyridin-2-yl]amino]pyrazol-1-yl]ethanone] | 8.72 | 8.55
3 | CN1CCN(C(=O)Cn2cc(Nc3nc4c(N5CC6CCC(C5)N6CC5(CS(C)(=O)=O)CC5)cccn4n3)cn2)CC1 [Example 109, 1-(4-methylpiperazin-1-yl)-2-[4-[[8-[8-([1-(methylsulfonylmethyl)cyclopropyl]methyl]-3,8-diazabicyclo[3.2.1]octan-3-yl]-[1,2,4]triazolo[1,5-a]pyridin-2-yl]amino]pyrazol-1-yl]ethanone] | 8.32 | 8.15
4 | CN1CCN(C(=O)Cn2cc(Nc3nc4c(N5CC6CCC(C5)N6S(=O)(=O)Cc5ccccc5F)cccn4n3)cn2)CC1 [Example 158, 2-[4-[[8-[8-[(2-fluorophenyl)methylsulfonyl]-3,8-diazabicyclo[3.2.1]octan-3-yl]-[1,2,4]triazolo[1,5-a]pyridin-2-yl]amino]pyrazol-1-yl]-1-(4-methylpiperazin-1-yl)ethanone] | 9.05 | 8.55
5 | Cc1cc(S(=O)(=O)N2C3CCC2CN(c2cccn4nc(Nc5cnn(CC(=O)N6CCN(C)CC6)c5)nc24)C3)sn1 [Example 139, 2-[4-[[8-[8-(3-yl)sulfonyl-3,8-diazabicyclo[3.2.1]octan-3-yl]-[1,2,4]triazolo[1,5-a]pyridin-2-yl]amino]pyrazol-1-yl]-1-(4-methylpiperazin-1-yl)ethanone] | 9.10 | 9.22
6 | CSCCN1CCN(C(=O)Cn2cc(Nc3nc4c(N5CC6CCC(C5)N6C(=O)N5CC(C(F)(F)F)C5)cccn4n3)cn2)CC1 [Example 186, 1-[4-(2-methylsulfanylethyl)piperazin-1-yl]-2-[4-[[8-[8-(3-(trifluoromethyl)azetidine-1-carbonyl]-3,8-diazabicyclo[3.2.1]octan-3-yl]-[1,2,4]triazolo[1,5-a]pyridin-2-yl]amino]pyrazol-1-yl]ethanone; formic acid] | 9.70 | 9.70
7 | CN1CCN(C(=O)Cn2cc(Nc3nc4c(N5CC6CCC(C5)N6C(=O)CC5CC(F)(F)C5)cccn4n3)cn2)CC1 [Example 8, 2-(3,3-difluorocyclobutyl)-1-[3-[2-[[1-[2-(4-methylpiperazin-1-yl)-2-oxo-ethyl]pyrazol-4-yl]amino]-[1,2,4]triazolo[1,5-a]pyridin-8-yl]-3,8-diazabicyclo[3.2.1]octan-8-yl]ethanone] | 9.22 | 9.15
8 | CC(C(=O)N1CCN(C)CC1)n1cc(Nc2nc3c(N4CC5CCC(C4)N5C(=O)CCC(F)(F)F)cccn3n2)cn1 (centres unmarked) [Example 104, 4,4,4-trifluoro-1-[3-[2-[[1-[1-methyl-2-(4-methylpiperazin-1-yl)-2-oxo-ethyl]pyrazol-4-yl]amino]-[1,2,4]triazolo[1,5-a]pyridin-8-yl]-3,8-diazabicyclo[3.2.1]octan-8-yl]butan-1-one] | 8.77 | 9.10
9 | CN1CCN(C(=O)Cn2cc(Nc3nc4c(N5CC6CCC(C5)N6C(=O)C5(C(F)(F)F)CC5)cccn4n3)cn2)CC1 [Example 38, 1-(4-methylpiperazin-1-yl)-2-[4-[[8-[8-[1-(trifluoromethyl)cyclopropanecarbonyl]-3,8-diazabicyclo[3.2.1]octan-3-yl]-[1,2,4]triazolo[1,5-a]pyridin-2-yl]amino]pyrazol-1-yl]ethanone] | 8.89 | 8.74
10 | O=C(Cn1cc(Nc2nc3c(N4CC5CCC(C4)N5C(=O)CCC(F)(F)F)cccn3n2)cn1)N1CCN(C2CCOCC2)CC1 [Example 10, 4,4,4-trifluoro-1-[3-[2-[[1-[2-oxo-2-(4-tetrahydropyran-4-ylpiperazin-1-yl)ethyl]pyrazol-4-yl]amino]-[1,2,4]triazolo[1,5-a]pyridin-8-yl]-3,8-diazabicyclo[3.2.1]octan-8-yl]butan-1-one] | 9.15 | 8.92
11 | CN1CCN(C(=O)Cn2cc(Nc3nc4c(N5CC6CCC(C5)N6S(=O)(=O)c5ccc(C#N)cc5)cccn4n3)cn2)CC1 [Example 149, 4-[3-[2-([1-[2-(4-methylpiperazin-1-yl)-2-oxoethyl]-1H-pyrazol-4-yl]amino)-[1,2,4]triazolo[1,5-a]pyridin-8-yl]-3,8-diazabicyclo[3.2.1]octane-8-sulfonyl]benzonitrile] | 8.96 | 8.70
12 | CN1CCN(C(=O)Cn2cc(Nc3nc4c(N5CC6CCC(C5)N6S(=O)(=O)Cc5cccc(Cl)c5)cccn4n3)cn2)CC1 [Example 165, 2-[4-[[8-[8-[(3-chlorophenyl)methylsulfonyl]-3,8-diazabicyclo[3.2.1]octan-3-yl]-[1,2,4]triazolo[1,5-a]pyridin-2-yl]amino]pyrazol-1-yl]-1-(4-methylpiperazin-1-yl)ethanone] | 9.40 | 9.10
13 | CN1CCN(C(=O)Cn2cc(Nc3nc4c(N5CC6CCC(C5)N6C(=O)[C@H]5C[C@H](C(F)(F)F)C5)cccn4n3)cn2)CC1 [Example 6, formic acid; 1-(4-methylpiperazin-1-yl)-2-[4-[[8-[8-[3-(trifluoromethyl)cyclobutanecarbonyl]-3,8-diazabicyclo[3.2.1]octan-3-yl]-[1,2,4]triazolo[1,5-a]pyridin-2-yl]amino]pyrazol-1-yl]ethanone] | 9.15 | 9.22
14 | CC(C(=O)N1CCN(C)CC1)n1cc(Nc2nc3c(N4CC5CCC(C4)N5C(=O)CCC(F)(F)F)cccn3n2)cn1 (centres unmarked) [Example 103, 4,4,4-trifluoro-1-[3-[2-[[1-[1-methyl-2-(4-methylpiperazin-1-yl)-2-oxo-ethyl]pyrazol-4-yl]amino]-[1,2,4]triazolo[1,5-a]pyridin-8-yl]-3,8-diazabicyclo[3.2.1]octan-8-yl]butan-1-one] | 8.82 | 8.77
15 | CSc1ccccc1C(=O)N1C2CCC1CN(c1cccn3nc(Nc4cnn(CC(=O)N5CCN(C)CC5)c4)nc13)C2 [Example 115] | 9.00 | 8.68
16 | CSCCN1CCN(C(=O)Cn2cc(Nc3nc4c(N5CC6CCC(C5)N6C(=O)C5CC(C(F)(F)F)C5)cccn4n3)cn2)CC1 (centres unmarked) [Example 198, 1-[4-(2-methylsulfanylethyl)-piperazin-1-yl]-2-[4-[[8-[8-[3-(trifluoromethyl)-cyclobutanecarbonyl]-3,8-diazabicyclo[3.2.1]octan-3-yl]-[1,2,4]triazolo[1,5-a]pyridin-2-yl]amino]pyrazol-1-yl]ethanone] | 9.10 | 8.68
